# Assay results from US20090258030A1, “Materials and Methods for Improving Livestock Productivity” (priority 2006, published 2009).
# Where a name gives a salt, the structure may show the parent alone. Marks after values point to notes of the source that are not given here.
# Columns and labels:
# [1] = Effect of cysteamine compound on crossbreed sheep (Example 6); format: in vivo
# [2] = Effect of cysteamine hydrochloride on productivity of pregnant pig sows (Example 1); format: in vivo, swine (D×L×M hybrid swine)
# Excerpt: A total of 14 heads of pregnant pig sow (which were the offspring of Duroc×Landrace×Meishan swine, also referred to herein as D×L×M hybrid swine) (84 days of pregnant) were divided into 2 groups: Control group (6) and Cysteamine group (8). The Control group was fed with basal diet. […]
# [3] = Effect of cysteamine compound on small-fat-tail sheep (Example 6); format: in vivo
# Excerpt: In the following example, the test animals were sheep (small-fat-tail sheep). In total, 40 heads of small-fat-tail sheep with the average weight of 26.5 kg were randomly divided into Control group (20) and Cysteamine group (20). The control group was fed with basal diet only, while the Cysteamine group was fed a diet that included 900 g cysteamine HCl per tonnage of diet. The standard basal diet of the farm was employed for this trial.
# [4] = Effect of cysteamine hydrochloride on weaning piglets: growth, FCR, diarrhea (Example 2); format: in vivo, swine (D×L×M weanling piglets)
# Excerpt: Total of 100 heads of unhealthy D×L×M weanling piglets (approx. 6.78 kg) were divided into 2 groups—Control group (50 heads) & Cysteamine group (50 heads). The Control group was fed with basal diet. […]
# [5] = Cysteamine used to fatten pigs (Example 8); format: in vivo; conditions: 190 ppm
# [6] = Carcass composition/appearance of fattening pigs (Example 3); format: in vivo, swine; conditions: 150 g cysteamine hydrochloride per ton of feed
# Procedure: 72 piglets were divided evenly into control group and Cysteamine group. The control group was treated with basal diet while the Cysteamine group was treated with basal diet added with 150 g cysteamine hydrochloride per ton of feed. Upon reaching the market weight of 85-90 kg, five animals from each treatment were slaughtered after fasting for one day. During slaughter, the animals were stunned with a stunning gun, bled, dehaired and eviscerated. The carcass was split […] and then chilled for 24 hours prior to fabrication. The slaughter and the chilled carcass weights were recorded. The chilled carcass weight expressed as percentage of the slaughter weight represents the dressed yield. The wholesale and retail cuts of each animals were weighed and recorded. The values were expressed as the percentage of the live weight and of the chilled carcass weight.
# The area of the longissimus dorsi (LD) muscle was measured on the 12th rib of the right part of the carcasses. This was done by tracing the outline of the whole LD muscle on acetate paper and the area was measured with the use of a grading method.
# There were no significant interaction effects.
# [7] = 900 g cysteamine HCl per tonnage of diet, after 35 days
# [8] = 900 g/tonnage, 35 days, 20 head
# [9] = 900 g/tonnage, 35 days, vs control
# [10] = feed consumed, 900 g/tonnage, 35 days, 20 head
# [11] = 150 g cysteamine hydrochloride per ton feed, after 49 days, vs control
# [12] = late phase pregnant sow, dosage 500 g/T, from 84 days of pregnant to weaning
# [13] = 90 g of cysteamine hydrochloride per ton of feed, after 30 days, vs control
# [14] = D × L × M weanling piglets, 300 ppm, 30 days
# [15] = D × L × M weanling piglets, 300 ppm, 30 days, 50 head
# [16] = slaughter at market weight 85-90 kg
smiles,measurement,setting,value
"NCCS [Cysteamine Hydrochloride, cysteamine hydrochloride]",amount of silage necessary in raising the sheep,[1]; [7],reduction
same,weight (ADG) vs control,[1]; [7],statistically significant increase
same,ADG (g/head/day),"[1]; 900 g/tonnage, 35 days",82.29 g/head/day
same,Final weight (kg/head),"[1]; 900 g/tonnage, 35 days",29.59 kg/head
same,Weight gain (kg/head),"[1]; 900 g/tonnage, 35 days",2.88 kg/head
same,Total feed consumption,[1]; [8],1001.2 kg
same,ADG: Improvement (%),[1]; [9],46.2%
same,Silage: Improvement (%),[1]; [9],−5.14%
same,Weight gain: Improvement (%),[1]; [9],46.2%
same,Concentrate,[1]; [10],245 kg
same,Hay,[1]; [10],350.0 kg
same,Silage,[1]; [10],406.2 kg
same,increase in litter weight,[2]; [11],13.28%
same,increase in piglet born weight,[2]; [11],12.43%
same,increase in weaning weight,[2]; [11],8.00%
same,Body weight of weaned piglet (kg/head),"[2]; dosage 500 g/T, piglets weaning age 19 days",6.21 kg/head
same,Birth weight per litter: Improvement,"[2]; dosage 500 g/T, vs control",2.50 kg
same,Birth weight per litter: Improvement (%),"[2]; dosage 500 g/T, vs control",13.28%
same,Birth weight per piglet: Improvement,"[2]; dosage 500 g/T, vs control",0.23 kg/head
same,Birth weight per piglet: Improvement (%),"[2]; dosage 500 g/T, vs control",12.43%
same,Body weight of weaned piglet: Improvement,"[2]; dosage 500 g/T, vs control",0.46 kg/head
same,Body weight of weaned piglet: Improvement (%),"[2]; dosage 500 g/T, vs control",8.00%
same,Live piglet born rate: Improvement,"[2]; dosage 500 g/T, vs control",0.00%
same,Live piglet born rate: Improvement (%),"[2]; dosage 500 g/T, vs control",0.00%
same,Birth weight per litter,[2]; [12],21.32 kg
same,Birth weight per piglet (kg/head),[2]; [12],2.08 kg/head
same,Live piglet born per litter (head),[2]; [12],10.29 head
same,Live piglet born rate (%),[2]; [12],100.00%
same,Piglet born per litter (head),[2]; [12],10.29 head
same,Total live piglet born (head),[2]; [12],82 head
same,Total piglet born (head),[2]; [12],82 head
same,amount of silage necessary in raising the sheep,[3]; [7],reduction
same,weight (ADG) vs control,[3]; [7],statistically significant increase
same,Daily weight gain (g/head/day),"[3]; 900 g/tonnage, 35 days",95.71 g/head/day
same,Final weight (kg/head),"[3]; 900 g/tonnage, 35 days",28.92 kg/head
same,Weight gain (kg/head),"[3]; 900 g/tonnage, 35 days",3.350 kg/head
same,Total feed consumption,[3]; [8],1019.38 kg
same,Daily weight gain: Improvement (%),[3]; [9],30.9%
same,Silage: Improvement (%),[3]; [9],−16.22%
same,Weight gain: Improvement (%),[3]; [9],30.9%
same,Concentrate,[3]; [10],245 kg
same,Hay,[3]; [10],350.00 kg
same,Silage,[3]; [10],424.38 kg
same,decrease in feed conversion rate (FCR),[4]; [13],5.56%
same,improvement in diarrhea condition,[4]; [13],43.24%
same,increase in average daily weight gain (ADG),[4]; [13],12.83%
same,ADG: Improvement,"[4]; 300 ppm, 30 days, vs control",+48 g/head
same,ADG: Improvement (%),"[4]; 300 ppm, 30 days, vs control",12.83%
same,Daily feed consumption: Improvement,"[4]; 300 ppm, 30 days, vs control",+44.2 g/head
same,Diarrhea: Improvement (%),"[4]; 300 ppm, 30 days, vs control",−43.24%
same,FCR: Improvement,"[4]; 300 ppm, 30 days, vs control",−0.1
same,FCR: Improvement (%),"[4]; 300 ppm, 30 days, vs control",−5.56%
same,Final Wt.: Improvement,"[4]; 300 ppm, 30 days, vs control",+1.5 kg/head
same,Total feed consumption: Improvement,"[4]; 300 ppm, 30 days, vs control",+66.3 kg
same,Total final weight: Improvement,"[4]; 300 ppm, 30 days, vs control",+75 kg
same,Total weight gain: Improvement,"[4]; 300 ppm, 30 days, vs control",+72.5 kg
same,Weight gain: Improvement,"[4]; 300 ppm, 30 days, vs control",+1.45 kg/head
same,ADG (g/head),[4]; [14],422 g/head
same,Daily feed consumption (g/head),[4]; [14],717.4 g/head
same,FCR,[4]; [14],1.70
same,Final Wt. (kg/head),[4]; [14],19.46 kg/head
same,Weight gain (kg/head),[4]; [14],12.66 kg/head
same,Total feed consumption,[4]; [15],1076.1 kg
same,Total final weight,[4]; [15],973 kg
same,Total weight gain,[4]; [15],633 kg
same,Diarrhea (head),"[4]; D × L × M weanling piglets, 300 ppm, 30 days, of 50 head",21 head
same,ADG,[5]; from 68 kg to market (35 days),1182 g
same,Age,[5]; from 68 kg to market (35 days),187 days
same,Ave. backfat thickness (cm),[5]; from 68 kg to market (35 days),2.1 cm
same,Back fat thickness (neck) (cm),[5]; from 68 kg to market (35 days),3.0 cm
same,"Back fat thickness, Hip (cm)",[5]; from 68 kg to market (35 days),1.4 cm
same,"Back fat thickness, Middle part (cm)",[5]; from 68 kg to market (35 days),1.8 cm
same,Body weight after slaughtering,[5]; from 68 kg to market (35 days),86 kg
same,Body weight before slaughtering,[5]; from 68 kg to market (35 days),106 kg
same,FCR,[5]; from 68 kg to market (35 days),2.71
same,Feed consumption,[5]; from 68 kg to market (35 days),103 kg
same,Loin eye diameter (cm),[5]; from 68 kg to market (35 days),33.0 cm
same,ADG: Improvement,[5]; vs control,125 g
same,ADG: Improvement (%),[5]; vs control,11.79%
same,Age: Improvement,[5]; vs control,-5 days
same,Age: Improvement (%),[5]; vs control,−2.60%
same,Ave. backfat thickness: Improvement,[5]; vs control,−0.5 cm
same,Ave. backfat thickness: Improvement (%),[5]; vs control,−18.42%
same,Back fat thickness (neck): Improvement,[5]; vs control,−0.6 cm
same,Back fat thickness (neck): Improvement (%),[5]; vs control,−16.67%
same,"Back fat thickness, Hip: Improvement",[5]; vs control,−0.2 cm
same,"Back fat thickness, Hip: Improvement (%)",[5]; vs control,−12.50%
same,"Back fat thickness, Middle part: Improvement",[5]; vs control,−0.6 cm
same,"Back fat thickness, Middle part: Improvement (%)",[5]; vs control,−25.00%
same,Body weight after slaughtering: Improvement,[5]; vs control,2 kg
same,Body weight after slaughtering: Improvement (%),[5]; vs control,2.38%
same,Body weight before slaughtering: Improvement,[5]; vs control,2 kg
same,Body weight before slaughtering: Improvement (%),[5]; vs control,1.92%
same,FCR: Improvement,[5]; vs control,−0.26
same,FCR: Improvement (%),[5]; vs control,−8.80%
same,Feed consumption: Improvement,[5]; vs control,-4 kg
same,Feed consumption: Improvement (%),[5]; vs control,−3.74%
same,Loin eye diameter: Improvement,[5]; vs control,2.5 cm
same,Loin eye diameter: Improvement (%),[5]; vs control,8.20%
same,backfat vs pigs fed diet without cysteamine hydrochloride,[6],significantly thinner
same,"dressing percentage, loin eye area, and lean:fat ratio vs pigs fed without cysteamine hydrochloride",[6],no significant differences
same,loin cut and lean trimmings as a percent of the live-weight vs pigs fed without cysteamine hydrochloride,[6],significantly higher
same,Dressing %,[6]; [16],69.012%
same,Lean:Fat Ratio,[6]; [16],0.105
same,Loin Eye Area (sq.cm),[6]; [16],4.850 sq.cm
same,Backfat Thickness (cm),"[6]; slaughter at market weight 85-90 kg, P < 0.05 vs non-cysteamine HCl",1.91^a cm
